In US11149067B2, “Tailored cyclodepsipeptides as potent non-covalent serine protease inhibitors” (UNIVERSITÄT DUISBURG-ESSEN, priority 2017, dated 2021):

Legend:
human HTRA3 = human HTRA3 (Homo sapiens (Human), UniProt P83110); experiment: Chromogenic enzyme activity assay, HTRA3
human HTRA1 = human HTRA1 (Homo sapiens (Human), UniProt Q92743); experiment: Chromogenic enzyme activity assay, HTRA1
[1] = target: human pancreas chymotrypsin; experiment: Chromogenic enzyme activity assay, chymotrypsin; type: biochemical; details: for Ki: human pancreas chymotrypsin, Table 2
bovine pancreas trypsin = bovine pancreas trypsin (Bos taurus (Bovine), UniProt P00760); experiment: Chromogenic enzyme activity assay, trypsin; type: biochemical; details: Table 2
human HTRA2 = human HTRA2 (Homo sapiens (Human), UniProt O43464); experiment: Chromogenic enzyme activity assay, HTRA2; details: for fold gain in HTRA2 potency relative to Ahp1: compared with Ahp1
[2] = target: human neutrophil elastase (Homo sapiens (Human), UniProt P08246); experiment: Chromogenic enzyme activity assay, elastase; type: biochemical; details: for Ki: human neutrophil elastase
[3] = tested on: human bone marrow-derived stromal cells (hBMSCs); experiment: HTRA1-mediated hBMSC osteogenesis, matrix mineralization by Alizarin Red S staining; type: cell-based; details: 10 μM compound, with HTRA1 or inactive HTRA1 S328A
Description: Human BMSCs (hBMSCs) (Lonza Verviers, Belgium) were maintained in normal growth medium consisting of Dulbecco's modified eagle medium (DMEM-low glucose, with Glutamax) (Thermo Fisher Scientific, Reinach, Switzerland), supplemented with 10% fetal bovine serum (FBS) (Bioswisstec, Schaffhausen, Switzerland) and penicillin (50 units mL^−1) and streptomycin (50 μg mL^−1), and used between passage 2 and 6. The osteogenic differentiation of hBMSCs was performed as previously described in the art. Briefly, hBMSCs were seeded at 10′000 cells cm-2 in 24-well cell culture plates, and incubated for up to 14 days in osteogenic medium consisting of normal growth medium supplemented with ascorbic acid (50 μM), β-glycerophosphate (10 mM) and dexamethasone (100 nM) (all from Sigma-Aldrich, Buchs, Switzerland). Cells were replenished with fresh medium every 3-4 days. […] Mineralized matrix deposition by hBMSC-derived bone forming cells was visualized using Alizarin Red S, and the amount of staining quantified by determining the absorption at 570 nm using a multiplate reader (Infinite M200, Tecan) following extraction with 10% cetylpyridinium chloride (Sigma-Aldrich).

Sequence of human HTRA1 (Q92743 158-480): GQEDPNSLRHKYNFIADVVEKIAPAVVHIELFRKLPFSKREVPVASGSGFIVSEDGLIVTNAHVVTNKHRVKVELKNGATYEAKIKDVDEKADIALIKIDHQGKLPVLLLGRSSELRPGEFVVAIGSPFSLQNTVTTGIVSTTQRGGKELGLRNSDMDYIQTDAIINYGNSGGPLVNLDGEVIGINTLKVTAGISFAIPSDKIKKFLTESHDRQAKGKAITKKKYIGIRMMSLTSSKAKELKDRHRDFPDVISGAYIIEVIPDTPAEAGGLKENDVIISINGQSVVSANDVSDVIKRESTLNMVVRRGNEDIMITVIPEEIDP
Sequence of human HTRA3 (P83110 111-436): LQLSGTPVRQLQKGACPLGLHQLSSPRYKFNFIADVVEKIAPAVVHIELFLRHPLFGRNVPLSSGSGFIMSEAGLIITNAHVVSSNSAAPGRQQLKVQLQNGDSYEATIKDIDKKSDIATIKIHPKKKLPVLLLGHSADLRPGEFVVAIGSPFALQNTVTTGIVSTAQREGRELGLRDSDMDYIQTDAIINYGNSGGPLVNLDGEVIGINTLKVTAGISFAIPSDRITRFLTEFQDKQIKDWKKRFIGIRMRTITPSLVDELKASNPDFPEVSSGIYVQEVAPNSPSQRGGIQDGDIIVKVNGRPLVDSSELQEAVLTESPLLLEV
Sequence of bovine pancreas trypsin (P00760 24-246): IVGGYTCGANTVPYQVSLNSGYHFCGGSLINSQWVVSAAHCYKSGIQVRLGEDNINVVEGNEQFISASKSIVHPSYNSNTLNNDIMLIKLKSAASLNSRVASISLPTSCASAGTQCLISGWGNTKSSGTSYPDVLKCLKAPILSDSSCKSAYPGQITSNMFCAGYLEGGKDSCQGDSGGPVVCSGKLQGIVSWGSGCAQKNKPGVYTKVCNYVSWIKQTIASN
Sequence of human HTRA2 (O43464 134-458): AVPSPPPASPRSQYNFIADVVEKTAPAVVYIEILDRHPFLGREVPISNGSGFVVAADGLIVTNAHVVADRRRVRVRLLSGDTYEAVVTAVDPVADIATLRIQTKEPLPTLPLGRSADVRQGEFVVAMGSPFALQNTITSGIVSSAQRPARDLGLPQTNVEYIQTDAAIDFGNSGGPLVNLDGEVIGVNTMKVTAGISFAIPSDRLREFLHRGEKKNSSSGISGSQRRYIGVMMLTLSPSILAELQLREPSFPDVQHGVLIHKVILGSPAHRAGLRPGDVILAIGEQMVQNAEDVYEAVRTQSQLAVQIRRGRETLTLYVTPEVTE
Sequence of human neutrophil elastase (P08246 30-267): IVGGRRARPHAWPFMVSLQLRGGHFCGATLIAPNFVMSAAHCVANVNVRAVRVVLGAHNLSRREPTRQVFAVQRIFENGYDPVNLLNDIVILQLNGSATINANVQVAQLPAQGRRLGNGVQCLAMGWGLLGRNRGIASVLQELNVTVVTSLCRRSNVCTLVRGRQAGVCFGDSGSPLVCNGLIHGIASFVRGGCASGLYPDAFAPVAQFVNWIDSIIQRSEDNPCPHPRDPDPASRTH

HTRA3 inhibition, in words (human HTRA3) | HTRA1 inhibition, in words (human HTRA1) | Ki [1] | Ki (bovine pancreas trypsin) | HTRA2 inhibition, in words (human HTRA2) | elastase inhibition, in words [2] | chymotrypsin inhibition, in words [1] | Ki (human HTRA2) | Ki (human HTRA3) | Ki (human HTRA1) | Ki ([2]; Table 2) | fold gain in HTRA2 potency relative to Ahp1 (human HTRA2) | Ki ([2]; Table 3) | Compound | inhibition of HTRA1-mediated hBMSC osteogenesis (matrix mineralization) [3]
inhibited | inhibited | > 50 µM | > 50 µM | – | – | – | – | – | – | – | – | – | CC(C)C[C@H]1C(=O)N(C)[C@@H](Cc2ccccc2)C(=O)N[C@@H](C(C)C)C(=O)O[C@H](C)[C@H](NC(=O)[C@H](C)NC(=O)[C@H](C)NC(=O)OCc2ccccc2)C(=O)N[C@@H](C(C)C)C(=O)N[C@H]2CC[C@@H](O)N1C2=O [Ahp1] | –
significantly reduced | significantly reduced | 0.37 ± 0.08 µM | – | significantly reduced | significantly reduced | enhanced chymotrypsin inhibition | – | – | – | – | – | – | CC(C)C[C@H]1C(=O)N(C)[C@@H](Cc2ccccc2)C(=O)N[C@@H](C(C)C)C(=O)O[C@H](C)[C@H](NC(=O)[C@H](C)NC(=O)[C@H](C)NC(=O)OCc2ccccc2)C(=O)N[C@@H](Cc2ccccc2)C(=O)N[C@H]2CC[C@@H](O)N1C2=O [Ahp2] | –
inhibited | – | > 50 µM | > 50 µM | – | – | – | 0.27 ± 0.07 µM | 3.1 ± 0.6 µM | > 50 µM | 0.21 ± 0.06 µM | – | – | CC(C)C[C@H]1C(=O)N(C)[C@@H](Cc2ccccc2)C(=O)N[C@@H](C(C)C)C(=O)O[C@H](c2ccccc2)[C@H](NC(=O)[C@H](C)NC(=O)[C@H](C)NC(=O)OCc2ccccc2)C(=O)N[C@@H](C(C)C)C(=O)N[C@H]2CC[C@@H](O)N1C2=O [Ahp3] | –
– | – | > 50 µM | > 50 µM | sub-μM inhibition potencies | – | – | 0.49 ± 0.11 µM | > 50 µM | > 50 µM | 0.33 ± 0.06 µM | more than ten-fold | – | CC(C)C[C@H]1C(=O)N(C)[C@@H](Cc2ccccc2)C(=O)N[C@@H](C(C)C)C(=O)O[C@H](C)[C@H](NC(=O)[C@H](Cc2ccccc2)NC(=O)[C@H](C)NC(=O)OCc2ccccc2)C(=O)N[C@@H](C(C)C)C(=O)N[C@H]2CC[C@@H](O)N1C2=O [Ahp4] | –
– | inhibited | > 50 µM | > 50 µM | – | – | – | 2.1 ± 0.3 µM | > 50 µM | 10.3 ± 3 µM | 8 ± 1.8 µM | – | – | CC(C)[C@@H]1NC(=O)[C@@H](NC(=O)[C@H](C)NC(=O)[C@H](C)NC(=O)OCc2ccccc2)[C@@H](C)OC(=O)[C@H](C(C)C)NC(=O)[C@H](Cc2ccccc2)N(C)C(=O)[C@H](Cc2ccccc2)N2C(=O)[C@H](CC[C@H]2O)NC1=O [Ahp6] | –
– | – | > 50 µM | > 50 µM | – | low μM or even sub-μM | – | – | – | – | – | – | – | CC(C)C[C@H]1C(=O)N(C)[C@@H](C)C(=O)N[C@@H](C(C)C)C(=O)O[C@H](C)[C@H](NC(=O)[C@H](C)NC(=O)[C@H](C)NC(=O)OCc2ccccc2)C(=O)N[C@@H](C(C)C)C(=O)N[C@H]2CC[C@@H](O)N1C2=O [Ahp7] | –
inhibited | – | > 50 µM | > 50 µM | – | – | – | 2.3 ± 0.2 µM | 9.5 ± 0.9 µM | > 50 µM | 0.32 ± 0.05 µM | – | – | CC(C)C[C@H]1C(=O)N(C)[C@@H](Cc2ccccc2)C(=O)N[C@@H](Cc2ccccc2)C(=O)O[C@H](C)[C@H](NC(=O)[C@H](C)NC(=O)[C@H](C)NC(=O)OCc2ccccc2)C(=O)N[C@@H](C(C)C)C(=O)N[C@H]2CC[C@@H](O)N1C2=O [Ahp8] | –
– | lowered the Ki | > 50 µM | > 50 µM | sub-μM Ki | lowered the Ki | – | – | – | – | – | 15 fold | – | CC(C)C[C@H]1C(=O)N(C)[C@@H](Cc2ccccc2)C(=O)N[C@@H](C(C)C)C(=O)O[C@H](C(C)C)[C@H](NC(=O)[C@H](C)NC(=O)[C@H](C)NC(=O)OCc2ccccc2)C(=O)N[C@@H](C(C)C)C(=O)N[C@H]2CC[C@@H](O)N1C2=O [Ahp10] | significantly inhibited
moderate inhibition | – | – | – | moderate inhibition | – | – | – | – | – | – | – | – | CC(C)C[C@H]1C(=O)N(C)[C@@H](Cc2ccccc2)C(=O)N[C@@H](C(C)C)C(=O)O[C@H](C(C)C)[C@H](NC(=O)[C@H](C)NC(=O)CCc2ccccc2)C(=O)N[C@@H](C(C)C)C(=O)N[C@H]2CC[C@@H](O)N1C2=O [Ahp11] | –
enhanced inhibitory activity | enhanced inhibitory activity | – | – | enhanced inhibitory activity | – | – | – | – | – | – | – | – | CC(C)C[C@H]1C(=O)N(C)[C@@H](Cc2ccccc2)C(=O)N[C@@H](C(C)C)C(=O)O[C@H](C)[C@H](NC(=O)[C@H](C)NC(=O)[C@H](C)NC(=O)OCc2ccccc2)C(=O)N[C@@H](C)C(=O)N[C@H]2CC[C@@H](O)N1C2=O [Ahp13] | –
enhanced inhibitory activity | enhanced inhibitory activity | – | – | enhanced inhibitory activity | – | – | – | – | – | – | – | – | CC[C@@H]1NC(=O)[C@@H](NC(=O)[C@H](C)NC(=O)[C@H](C)NC(=O)OCc2ccccc2)[C@@H](C)OC(=O)[C@H](C(C)C)NC(=O)[C@H](Cc2ccccc2)N(C)C(=O)[C@H](CC(C)C)N2C(=O)[C@H](CC[C@H]2O)NC1=O [Ahp14] | –
enhanced inhibitory activity | enhanced inhibitory activity | – | – | enhanced inhibitory activity | – | – | 1.11 µM | 0.74 µM | 1.24 µM | – | – | 1.93 µM | CC(C)C[C@H]1C(=O)N(C)[C@@H](Cc2ccccc2)C(=O)N[C@@H](C(C)C)C(=O)O[C@H](C)[C@H](NC(=O)[C@H](C)NC(=O)[C@H](C)NC(=O)OCc2ccccc2)C(=O)N[C@@H](C2CC2)C(=O)N[C@H]2CC[C@@H](O)N1C2=O [Ahp19] | –
– | – | – | – | – | – | – | > 50 µM | 8.3 µM | > 50 µM | – | – | 4.32 µM | CC(C)C[C@H]1C(=O)N(C)[C@@H](Cc2ccccc2)C(=O)N[C@@H](C(C)C)C(=O)O[C@H](C)[C@H](NC(=O)[C@H](C)NC(=O)[C@H](C)NC(=O)OCc2ccccc2)C(=O)N[C@@H](C(C)(C)C)C(=O)N[C@H]2CC[C@@H](O)N1C2=O [Ahp20] | –

Compound | HTRA3 inhibition, in words (human HTRA3) | HTRA1 inhibition, in words (human HTRA1) | Ki [1] | Ki (bovine pancreas trypsin) | HTRA2 inhibition, in words (human HTRA2) | elastase inhibition, in words [2] | chymotrypsin inhibition, in words [1] | Ki (human HTRA2) | Ki (human HTRA3) | Ki (human HTRA1) | Ki ([2]; Table 2) | fold gain in HTRA2 potency relative to Ahp1 (human HTRA2) | Ki ([2]; Table 3) | inhibition of HTRA1-mediated hBMSC osteogenesis (matrix mineralization) [3]
CC(C)C[C@@H]1NC(=O)[C@@H](NC(=O)[C@H](C)NC(=O)[C@H](C)NC(=O)OCc2ccccc2)[C@@H](C)OC(=O)[C@H](C(C)C)NC(=O)[C@H](Cc2ccccc2)N(C)C(=O)[C@H](CC(C)C)N2C(=O)[C@H](CC[C@H]2O)NC1=O [Ahp9] | – | – | – | – | slightly better HTRA2 inhibitory properties than Ahp1 | – | – | – | – | – | – | – | – | –
